Values after ≈ are worked out from the molar mass of the structure shown. Active and inactive are the calls of the source. The rule behind the calls is not given here.
What was measured:
[1] = test system: Candida albicans; test: Antifungal activity against fluconazole-resistant Candida albicans CaR assessed as inhibition of fungal growth by CLSI M27-A3 guidelines based method; format: functional
[2] = test system: Candida albicans; test: Effect on sterol composition in Candida albicans SC5314 assessed as obtusifoliol content at 0.0625 microg/ml measured after 16 hrs by GC-MS analysis relative to control; format: functional; details: dose 0.0625 µg/ml
[3] = test system: Candida albicans; test: Fungicidal activity fluconazole and iodiconazole resistant Candida albicans clinical isolate 17# assessed as reduction in viable colony count measured for 24 hrs by time-kill kinetics assay; format: functional, organism-based
[4] = test system: Candida albicans; test: Effect on sterol composition in Candida albicans SC5314 assessed as other sterols content at 0.0625 microg/ml measured after 16 hrs by GC-MS analysis (reference value: 1.06 %); format: functional; details: dose 0.0625 µg/ml
[5] = test system: Candida albicans; test: Antifungal activity against fluconazole-resistant Candida albicans clinical isolate 100 assessed as inhibition of fungal growth by CLSI M27-A3 guidelines based method; format: functional
[6] = Tmax in Sprague-Dawley rat at 3 mg/kg, iv by LC-MS/MS analysis; format: ADME, organism-based; details: in vivo
[7] = Cmax in Sprague-Dawley rat at 10 mg/kg, po by LC-MS/MS analysis; format: ADME, organism-based; details: in vivo
[8] = Cytotoxicity against HUVEC cells assessed as inhibition of cell growth incubated for 72 hrs by MTT assay; format: toxicity, cell-based; details: human
[9] = test system: Candida albicans; test: Antibiofilm activity against Candida albicans CPCC400616 assessed as inhibition of morphological transformation by measuring disappearance of mycelium at 2 microg/ml incubated for 4 hrs by microscopic photograph analysis; format: functional, organism-based; details: dose 2.0 µg/ml
[10] = test system: Candida albicans; test: Antibiofilm activity against fluconazole-resistant Candida albicans CPCC400616 assessed as inhibition of metabolic activity of biofilm measured after 24 hrs by XTT reduction assay; format: functional
[11] = Oral bioavailability in Sprague-Dawley rat at 10 mg/kg by LC-MS/MS analysis; format: ADME, organism-based; details: in vivo
[12] = test system: Pichia kudriavzevii; test: Antifungal activity against Candida krusei GIM 2.1 assessed as inhibition of fungal growth by CLSI M27-A3 guidelines based method; format: functional
[13] = Half-life in Sprague-Dawley rat at 10 mg/kg, po by LC-MS/MS analysis; format: ADME, organism-based; details: in vivo
[14] = test system: Candida parapsilosis; test: Antifungal activity against Candida parapsilosis GIM 2.190 assessed as inhibition of fungal growth by CLSI M27-A3 guidelines based method; format: functional; details: Lodderomyces parapsilosis
[15] = Cytotoxicity against human OVCAR-3 cells assessed as inhibition of cell growth incubated for 72 hrs by MTT assay; format: toxicity, cell-based
[16] = test system: Candida albicans; test: Antifungal activity against fluconazole-resistant Candida albicans clinical isolate 904 assessed as inhibition of fungal growth by CLSI M27-A3 guidelines based method; format: functional
[17] = test system: Candida albicans; test: Fungicidal activity against fluconazole and iodiconazole resistant Candida albicans clinical isolate 17# incubated for 48 hrs by SDA plate based method; format: functional
[18] = test system: Candida albicans; test: Antifungal activity against fluconazole-resistant Candida albicans clinical isolate 632 assessed as inhibition of fungal growth by CLSI M27-A3 guidelines based method; format: functional
[19] = Selectivity index, ratio of IC50 for HEK293T cells to MIC80 for Candida albicans SC5314; format: toxicity, cell-based; details: human, HEK293T cells versus Candida albicans SC5314; read-out: Selectivity Index
[20] = test system: Nakaseomyces glabratus; test: Antifungal activity against Candida glabrata assessed as inhibition of fungal growth by CLSI M27-A3 guidelines based method; format: functional
[21] = Tmax in Sprague-Dawley rat at 10 mg/kg, po by LC-MS/MS analysis; format: ADME, organism-based; details: in vivo
[22] = test system: Candida albicans; test: Antifungal activity against fluconazole-resistant Candida albicans clinical isolate 901 assessed as inhibition of fungal growth by CLSI M27-A3 guidelines based method; format: functional
[23] = test system: Candida albicans; test: Selectivity ratio of MFC for fungicidal activity against fluconazole and iodiconazole resistant Candida albicans clinical isolate 17# to MIC80 for antifungal activity against fluconazole and iodiconazole resistant Candida albicans clinical isolate 17#; format: functional
[24] = test system: Candida albicans; test: Effect on sterol composition in Candida albicans SC5314 assessed as eburicol content at 0.0625 microg/ml measured after 16 hrs by GC-MS analysis relative to control; format: functional; details: dose 0.0625 µg/ml
[25] = AUC (0 to t) in Sprague-Dawley rat at 10 mg/kg, po by LC-MS/MS analysis; format: ADME, organism-based; details: in vivo
[26] = test system: Candida albicans; test: Effect on sterol composition in Candida albicans SC5314 assessed as lanosterol content at 0.0625 microg/ml measured after 16 hrs by GC-MS analysis relative to control; format: functional; details: dose 0.0625 µg/ml
[27] = test system: Candida albicans; test: Fungicidal activity against Candida albicans SC5314 incubated for 48 hrs by SDA plate based method; format: functional
[28] = test system: Candida albicans; test: Effect on sterol composition in Candida albicans SC5314 assessed as 14alpha-demethyllanosterol content at 0.0625 microg/ml measured after 16 hrs by GC-MS analysis (reference value: 1.98 %); format: functional; details: dose 0.0625 µg/ml
[29] = MRT (0 to t) in Sprague-Dawley rat at 10 mg/kg, po by LC-MS/MS analysis; format: ADME, organism-based; details: in vivo
[30] = test system: Candida albicans; test: Antifungal activity against Candida albicans SC5314 assessed as inhibition of fungal growth by CLSI M27-A3 guidelines based method; format: functional
[31] = MRT(0 to t) in Sprague-Dawley rat at 3 mg/kg, iv by LC-MS/MS analysis; format: ADME, organism-based; details: in vivo
[32] = test system: Candida tropicalis; test: Antifungal activity against Candida tropicalis GIM 2.183 assessed as inhibition of fungal growth by CLSI M27-A3 guidelines based method; format: functional
[33] = test system: Candida albicans; test: Antifungal activity against Candida albicans GIM 2.194 assessed as inhibition of fungal growth by CLSI M27-A3 guidelines based method; format: functional
[34] = Apparent volume of distribution in Sprague-Dawley rat at 3 mg/kg, iv by LC-MS/MS analysis; format: ADME, organism-based; details: in vivo
[35] = test system: Candida albicans; test: Antibiofilm activity against fluconazole-resistant Candida albicans CPCC400616 assessed as inhibition of metabolic activity of biofilm measured after 48 hrs by XTT reduction assay; format: functional
[36] = test system: Candida albicans; test: Antibiofilm activity against fluconazole-resistant Candida albicans CPCC400616 assessed as inhibition of metabolic activity of biofilm measured after 6 hrs by XTT reduction assay; format: functional
[37] = test system: Candida albicans; test: Antifungal activity against fluconazole-resistant Candida albicans clinical isolate 311 assessed as inhibition of fungal growth by CLSI M27-A3 guidelines based method; format: functional
[38] = test system: Candida albicans; test: Antifungal activity against fluconazole and iodiconazole resistant Candida albicans clinical isolate 17# assessed as inhibition of fungal growth by CLSI M27-A3 guidelines based method; format: functional
[39] = test system: Candida albicans; test: Effect on sterol composition in Candida albicans SC5314 assessed as ergosterol content at 0.0625 microg/ml measured after 16 hrs by GC-MS analysis (reference value: 96.96 %); format: functional; details: dose 0.0625 µg/ml
[40] = test system: Candida albicans; test: Fungicidal activity fluconazole and iodiconazole resistant Candida albicans clinical isolate 17# assessed as reduction in viable colony count at 0.5 microg/ml measured within 24 hrs by time-kill kinetics assay; format: functional, organism-based; details: dose 0.5 µg/ml
[41] = test system: Candida albicans; test: Antifungal activity against fluconazole-resistant Candida albicans clinical isolate 103 assessed as inhibition of fungal growth by CLSI M27-A3 guidelines based method; format: functional
[42] = Half-life in Sprague-Dawley rat at 3 mg/kg, iv by LC-MS/MS analysis; format: ADME, organism-based; details: in vivo
[43] = Cytotoxicity against human NCI-H460 cells assessed as inhibition of cell growth incubated for 72 hrs by MTT assay; format: toxicity, cell-based
[44] = AUC (0 to t) in Sprague-Dawley rat at 3 mg/kg, iv by LC-MS/MS analysis; format: ADME, organism-based; details: in vivo
[45] = Cmax in Sprague-Dawley rat at 3 mg/kg, iv by LC-MS/MS analysis; format: ADME, organism-based; details: in vivo
[46] = test system: Candida albicans; test: Selectivity ratio of MFC for fungicidal activity against Candida albicans SC5314 to MIC80 for antifungal activity against Candida albicans SC5314; format: functional
[47] = Cytotoxicity against HEK293T cells assessed as inhibition of cell growth incubated for 72 hrs by MTT assay; format: toxicity, cell-based, HEK-293T; details: human

Compound: CN(Cc1ccc(N2CCN(Cc3ccc(F)cc3Br)CC2)cc1)CC(O)(Cn1cncn1)c1ccc(F)cc1F (configuration not stated)
- MIC80 [1]: 0.063 µg/mL (≈ 0.1 µM)
- Activity [2]: 14.81%
- Activity [3]: Dose-dependent-effect; Much More Effective Than Iodiconazole
- Activity [4]: 4.47%
- MIC80 [5]: 2 µg/mL (≈ 3.18 µM)
- Tmax [6]: 4.98 min
- Cmax [7]: 10.6 ng/mL
- IC50 at 72 h [8]: > 10 µM
- Activity [9]: Active
- MIC50 [10]: 2 µg/mL (≈ 3.18 µM)
- bioavailability [11]: 1.66%
- MIC80 [12]: 0.1 µg/mL (≈ 0.159 µM)
- half-life [13]: 1.12 h
- MIC80 [14]: 0.006 µg/mL (≈ 0.00953 µM)
- IC50 at 72 h [15]: 7.72 µM
- MIC80 [16]: 8 µg/mL (≈ 12.7 µM)
- MFC [17]: 0.063 µg/mL (≈ 0.1 µM)
- MIC80 [18]: 8 µg/mL (≈ 12.7 µM)
- Selectivity ratio [19]: 798
- MIC80 [20]: 0.1 µg/mL (≈ 0.159 µM)
- Tmax [21]: 1 h
- MIC80 [22]: > 64 µg/mL
- Selectivity ratio [23]: 1
- Activity [24]: 65.56%
- AUC(0-t) [25]: 14.4 ng·h/mL
- Activity [26]: 10.55%
- MFC [27]: 0.031 µg/mL (≈ 0.0492 µM)
- Activity [28]: 2.78%
- MRT last [29]: 1.12 h
- MIC80 [30]: 0.006 µg/mL (≈ 0.00953 µM)
- MRT last [31]: 0.478 h
- MIC80 [32]: 0.006 µg/mL (≈ 0.00953 µM)
- MIC80 [33]: 0.013 µg/mL (≈ 0.0207 µM)
- Vz [34]: 4.89 L/kg
- MIC50 [35]: 8 µg/mL (≈ 12.7 µM)
- MIC50 [36]: 0.5 µg/mL (≈ 0.794 µM)
- MIC80 [37]: 8 µg/mL (≈ 12.7 µM)
- MIC80 [38]: 0.063 µg/mL (≈ 0.1 µM)
- Activity [39]: 1.83%
- Activity [40]: Active
- MIC80 [41]: 4 µg/mL (≈ 6.35 µM)
- t1/2 [42]: 0.37 h
- IC50 at 72 h [43]: 5.22 µM
- AUCt [44]: 324 ng·h/mL
- Cmax [45]: 535 ng/mL
- Selectivity ratio [46]: 5
- IC50 at 72 h [47]: 4.99 µM

Source: ChEMBL document CHEMBL6092162, “Identification of novel and potent triazoles targeting CYP51 for antifungal: Design, synthesis, and biological study” (Eur J Med Chem, 2024)
